Laboratory results as given in patent US20060058307A1, “Combination of an atp-competitive inhibitor of bcr/abl kinase activity and a tyrphostin analog” (priority 2001, published 2006).
Read-outs that look alike come from different tables or passages of the source. One block for each molecule: values may come before it.

Experiments:
K562 cells [1] = assay: Clonogenic assay (colony formation in 0.3% agar) of K562 cells; type: cell-based, human; settings: 24 h
Experimental: At the completion of the incubation, cells are washed, plated in 0.3% agar and incubated for 10-14 days before colony formation is assessed. For results see under (a) in Table (A). […] At the completion of the incubation, colony formation ability is assessed as described in the last paragraph.

K562 cells [2] = assay: Morphologic changes associated with apoptosis (Hoechst 33258 staining) in K562 cells; type: cell-based, human; settings: 24 h
Experimental: For morphological analysis, cells are fixed in 3:1 (v:v) methanol:acetic acid, stained with 1 μg/ml Hoechst 33258 in 50% (v:v) glycerol and examined under epi-illumination using a Zeiss Axioplan microscope. Two hundred to 300 cells/sample are scored for apoptotic changes (peripheral chromatin condensed or nuclear fragmentation) as described in Svingen et al., Clin. Cancer Res. 6, 237-49 (2000).
Under (c) in Table (A), K562 cells are incubated with the concentration indicated in the subsequent table in the presence of diluent or 10 μmol/l STI 571, fixed, and examined for apoptotic morphological changes.

CML CFU-G = assay: Granulocyte colony formation of circulating mononuclear cells from CML patients (CFU-G / CFU-GM); type: cell-based, human; settings: for Number of colonies (% of control): (d) Pt. #30 CFU-GM, 24 h; for IC50: Homo sapiens, CFU-GM, linear regression
Experimental: Clinical samples are studied under the aegis of a protocol approved by the Institutional Review Board of the Mayo Clinic in accordance with the policies of the US Department of Health and Human Services. […] CML CFU-G, 10 mL of peripheral blood is drawn from normal volunteers and consenting patients with previously untreated chronic phase CML using EDTA as an anticoagulant. […] At the completion of the incubation, samples are sedimented at 200×g for 10 min, resuspended at a concentration of 1×10^6/ml in medium C containing 50 ng/mL G-CSF, plated in 0.3% agar, and incubated for 7-8 d. Colonies containing […] are counted on an inverted phase contrast microscope.

[3] = animal testing, in vivo; unpublished observations of Stinson, Narayanan and Sausville; adaphostin compared with AG957; cited from earlier work
[4] = compared with AG957; Svingen et al.; cited from earlier work
p210^bcr/abl = settings: immune complex kinase assays; cited from earlier work

IC50 (CML CFU-G; read-out: IC50 for Adaphostin in presence of 20 μmol/l STI571, CFU-GM, patient number 28): 5 µM
IC50 (CML CFU-G; read-out: IC50 for Adaphostin in presence of 20 μmol/l STI571, CFU-GM, patient number 29): 14 µM
IC50 (CML CFU-G; read-out: IC50 for Adaphostin in presence of 20 μmol/l STI571, CFU-GM, patient number 30): 8.5 µM
IC50 (CML CFU-G; read-out: IC50 for Adaphostin in presence of 20 μmol/l STI571, CFU-GM, patient number 31): 10 µM
IC50 (CML CFU-G; read-out: IC50 for Adaphostin in presence of 20 μmol/l STI571, CFU-GM, patient number 33): 16 µM
IC50 (CML CFU-G; read-out: IC50 for Adaphostin in presence of 20 μmol/l STI571, CFU-GM, patient number 34): 3.5 µM
IC50 (CML CFU-G; read-out: IC50 for Adaphostin without STI571, CFU-GM, patient number 28): 13 µM
IC50 (CML CFU-G; read-out: IC50 for Adaphostin without STI571, CFU-GM, patient number 29): > 20 µM
IC50 (CML CFU-G; read-out: IC50 for Adaphostin without STI571, CFU-GM, patient number 30): 13.5 µM
IC50 (CML CFU-G; read-out: IC50 for Adaphostin without STI571, CFU-GM, patient number 31): 8.5 µM
IC50 (CML CFU-G; read-out: IC50 for Adaphostin without STI571, CFU-GM, patient number 33): 23 µM
IC50 (CML CFU-G; read-out: IC50 for Adaphostin without STI571, CFU-GM, patient number 34): 11 µM
Compound: O=C(OC12CC3CC(CC(C3)C1)C2)c1ccc(NCc2cc(O)ccc2O)cc1 [Adaphostin, 4-{[(2,5-dihydroxyphenyl)methyl]amino}-benzoic acid adamantyl ester]
Number of colonies (% of control) (K562 cells [1]; (a) adaphostin 2.5 μmol/l without STI571): 56 ± 4 % of control
Number of colonies (% of control) (K562 cells [1]; (a) adaphostin 5.1 μmol/l without STI571): 46 ± 4 % of control
Number of colonies (% of control) (K562 cells [1]; (a) adaphostin 7.7 μmol/l without STI571): 27 ± 4 % of control
Number of colonies (% of control) (K562 cells [1]; (a) adaphostin 10.2 μmol/l without STI571): 10 ± 1 % of control
Number of colonies (% of control) (K562 cells [1]; (b) adaphostin 5.2 μmol/l, STI571 0): 35 ± 3 % of control
Apoptosis (% of total cells) (K562 cells [2]; (c) adaphostin 0.62 μmol/l without STI571): 2.1 % of total cells
Apoptosis (% of total cells) (K562 cells [2]; (c) adaphostin 1.25 μmol/l without STI571): 10.9 % of total cells
Apoptosis (% of total cells) (K562 cells [2]; (c) adaphostin 2.50 μmol/l without STI571): 41.8 % of total cells
Apoptosis (% of total cells) (K562 cells [2]; (c) adaphostin 3.75 μmol/l without STI571): 62.8 % of total cells
Apoptosis (% of total cells) (K562 cells [2]; (c) adaphostin 5.00 μmol/l without STI571): 84.1 % of total cells
Number of colonies (% of control) (CML CFU-G; adaphostin 3.2 μmol/l without STI571): 93 ± 1.9 % of control
Number of colonies (% of control) (CML CFU-G; adaphostin 6.4 μmol/l without STI571): 71 ± 2.2 % of control
Number of colonies (% of control) (CML CFU-G; adaphostin 12.7 μmol/l without STI571): 55 ± 2.5 % of control
Number of colonies (% of control) (CML CFU-G; adaphostin 15.9 μmol/l without STI571): 40 ± 1.2 % of control
Number of colonies (% of control) (CML CFU-G; adaphostin 19.1 μmol/l without STI571): 18 ± 0.7 % of control
serum half-life [3]: longer
potency in vitro [4]: higher

Compound: COC(=O)c1ccc(NCc2cc(O)ccc2O)cc1 [AG957]
serum half-life [3]: very short
p210^bcr/abl activity (p210^bcr/abl): inhibit

Compound: Cc1ccc(NC(=O)c2ccc(CN3CCN(C)CC3)cc2)cc1Nc1nccc(-c2cccnc2)n1 [STI571, N-{5-[4-(4-methyl-piperazino-methyl)-benzoylamido]-2-methylphenyl}-4-(3-pyridyl)-2-pyrimidine-amine]
Apoptosis (% of total cells) (K562 cells [2]; (c) STI571 10 μmol/l, adaphostin 0): 12.9 % of total cells
